From ChEMBL document CHEMBL5338716, “Synthesis and anti-trypanosomal evaluation of novel N-branched acyclic nucleoside phosphonates bearing 7-aryl-7-deazapurine nucleobase” (Eur J Med Chem, 2022)

Legend:
[1] = tested on: Trypanosoma brucei brucei; test: Antitrypanosomal activity against Trypanosoma brucei brucei assessed as reduction in parasite growth by cell-based assay; assay type: functional, organism-based
[2] = Cytotoxicity against human HepG2 cells assessed as cell growth inhibition; assay type: toxicity, cell-based
[3] = Selectivity index, ratio of IC50 for human NHDF cells to EC50 for Trypanosoma brucei brucei; assay type: functional
[4] = Cytotoxicity against human HL-60 cells assessed as cell growth inhibition; assay type: toxicity, cell-based
[5] = Cytotoxicity against human HeLa S3 cells assessed as cell growth inhibition; assay type: toxicity, cell-based
[6] = Cytotoxicity against human NHDF cells assessed as cell growth inhibition; assay type: toxicity, cell-based
[7] = Cytotoxicity against human CCRF-CEM cells assessed as cell growth inhibition; assay type: toxicity, cell-based
[8] = Binding affinity to Trypanosoma brucei […] assessed as inhibition constant
[9] = Selectivity index, ratio of EC50 for human MRC5 cells to EC50 for Trypanosoma brucei brucei; assay type: functional

EC50 [1]	Ki [8]	Compound	IC50 [2]	Selectivity Index [3]	IC50 [4]	IC50 [5]	IC50 [6]	IC50 [7]	Ratio EC50 [9]
1.61 µM	–	CCOC(=O)[C@H](Cc1ccccc1)NP(=O)(CCN(CC#N)CCn1cc(-c2ccccc2)c2c(N)ncnc21)N[C@@H](Cc1ccccc1)C(=O)OCC	> 20 µM	6.5	8.7 µM	11 µM	10.4 µM	5.9 µM	–
3.47 µM	–	CCOC(=O)[C@H](Cc1ccccc1)NP(=O)(CCN(CCO)CCn1cc(-c2ccc(OC)cc2)c2c(N)ncnc21)N[C@@H](Cc1ccccc1)C(=O)OCC	> 20 µM	3.8	> 20 µM	> 20 µM	13.2 µM	6.2 µM	–
2.24 µM	–	CCOC(=O)[C@H](Cc1ccccc1)NP(=O)(CCN(CC#N)CCn1cc(-c2ccc(OC)cc2)c2c(N)ncnc21)N[C@@H](Cc1ccccc1)C(=O)OCC	> 20 µM	3.5	6.7 µM	> 20 µM	7.9 µM	4.2 µM	–
1.21 µM	–	CCOC(=O)[C@H](Cc1ccccc1)NP(=O)(CCN(CCn1cc(-c2ccccc2)c2c(N)ncnc21)CCP(=O)(N[C@@H](Cc1ccccc1)C(=O)OCC)N[C@@H](Cc1ccccc1)C(=O)OCC)N[C@@H](Cc1ccccc1)C(=O)OCC	6.3 µM	7.4	4.2 µM	4.9 µM	8.9 µM	3.8 µM	–
1.9 µM	–	CCOC(=O)[C@H](Cc1ccccc1)NP(=O)(CCN(CCO)CCn1cc(-c2ccccc2)c2c(N)ncnc21)N[C@@H](Cc1ccccc1)C(=O)OCC	14.7 µM	10	> 20 µM	> 20 µM	18.9 µM	6.7 µM	–
6.81 µM	–	CCOC(=O)[C@H](Cc1ccccc1)NP(=O)(CCN(CCC#N)CCn1cc(-c2ccc(OC)cc2)c2c(N)ncnc21)N[C@@H](Cc1ccccc1)C(=O)OCC	> 20 µM	2.4	> 20 µM	> 20 µM	16.4 µM	> 20 µM	–
4.19 µM	–	CCOC(=O)[C@H](Cc1ccccc1)NP(=O)(CCN(CCC#N)CCn1cc(-c2ccccc2)c2c(N)ncnc21)N[C@@H](Cc1ccccc1)C(=O)OCC	14.1 µM	>4.8	8.6 µM	> 20 µM	> 20 µM	5.6 µM	–

The remaining lines, values behind:

Compound	EC50 [1]	Ki [8]	IC50 [2]	Selectivity Index [3]	IC50 [4]	IC50 [5]	IC50 [6]	IC50 [7]	Ratio EC50 [9]
Nc1ncnc2c1c(-c1ccccc1)cn2CCN(CCO)CCP(=O)(O)O	–	14.1 µM	–	–	–	–	–	–	–
COc1ccc(-c2cn(CCN(CC#N)CCP(=O)(O)O)c3ncnc(N)c23)cc1	–	10.9 µM	–	–	–	–	–	–	–
CCOC(=O)[C@H](Cc1ccccc1)NP(=O)(CCN(CCn1cc(-c2ccc(OC)cc2)c2c(N)ncnc21)CCP(=O)(N[C@@H](Cc1ccccc1)C(=O)OCC)N[C@@H](Cc1ccccc1)C(=O)OCC)N[C@@H](Cc1ccccc1)C(=O)OCC	0.58 µM	–	6.6 µM	16.4	4.6 µM	5.4 µM	9.5 µM	4 µM	–
Nc1ncnc2c1ccn2[C@@H]1O[C@H](CO)[C@@H](O)[C@H]1O [TUBERCIDIN]	0.16 µM	~330 µM	0.05 µM	0.4	0.14 µM	0.1 µM	0.07 µM	0.11 µM	4
COc1ccc(-c2cn(CCN(CCO)CCP(=O)(O)O)c3ncnc(N)c23)cc1	–	2.25 µM	–	–	–	–	–	–	–
N#CCCN(CCn1cc(-c2ccccc2)c2c(N)ncnc21)CCP(=O)(O)O	–	1.73 µM	–	–	–	–	–	–	–
Nc1ncnc2c1c(-c1ccccc1)cn2CCN(CCP(=O)(O)O)CCP(=O)(O)O	–	10.7 µM	–	–	–	–	–	–	–
COc1ccc(-c2cn(CCN(CCP(=O)(O)O)CCP(=O)(O)O)c3ncnc(N)c23)cc1	–	3.97 µM	–	–	–	–	–	–	–
N#CCN(CCn1cc(-c2ccccc2)c2c(N)ncnc21)CCP(=O)(O)O	–	9.5 µM	–	–	–	–	–	–	–
COc1ccc(-c2cn(CCN(CCC#N)CCP(=O)(O)O)c3ncnc(N)c23)cc1	–	2.2 µM	–	–	–	–	–	–	–
